The results in this text go back to PMC6273687, “Design, Synthesis and Biological Evaluation of Novel Primaquine-Cinnamic Acid Conjugates of the Amide and Acylsemicarbazide Type” (Molecules, 2016).

Data set [1] deals with MCF-7 breast carcinoma cell line. The data set can be described thus: Growth inhibition of tumor cell lines in vitro (MTT / cell counting). Format: cell-based, human. The settings on record: Homo sapiens, MCF7, 72 h; MCF-7, 3 days.
The test system of data set [2] is NCI-H460 lung carcinoma cell line. The description is as above. Format: cell-based, human. Conditions: Homo sapiens, 72 h; NCI-H460, 3 days. In a few lines:
(§1)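 Cells in DMEM/10% FBS were exposed to compounds at 10^−8 to 10^−4 M (ten-fold dilutions) for 3 days (SW 620, NCI-H460) or 4 days (CEM, L1210) at 37 °C. Growth was read by MTT absorbance at 570 nm and/or viable cell counting, and PG values were derived; quadruplicate points, at least two experiments.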

For data set [3], the target named is T1, soybean lipoxygenase (LOX) (Glycine max, UniProt P08170).
T1 construct: purchased Sigma-Aldrich
T1 sequence (P08170 1-839): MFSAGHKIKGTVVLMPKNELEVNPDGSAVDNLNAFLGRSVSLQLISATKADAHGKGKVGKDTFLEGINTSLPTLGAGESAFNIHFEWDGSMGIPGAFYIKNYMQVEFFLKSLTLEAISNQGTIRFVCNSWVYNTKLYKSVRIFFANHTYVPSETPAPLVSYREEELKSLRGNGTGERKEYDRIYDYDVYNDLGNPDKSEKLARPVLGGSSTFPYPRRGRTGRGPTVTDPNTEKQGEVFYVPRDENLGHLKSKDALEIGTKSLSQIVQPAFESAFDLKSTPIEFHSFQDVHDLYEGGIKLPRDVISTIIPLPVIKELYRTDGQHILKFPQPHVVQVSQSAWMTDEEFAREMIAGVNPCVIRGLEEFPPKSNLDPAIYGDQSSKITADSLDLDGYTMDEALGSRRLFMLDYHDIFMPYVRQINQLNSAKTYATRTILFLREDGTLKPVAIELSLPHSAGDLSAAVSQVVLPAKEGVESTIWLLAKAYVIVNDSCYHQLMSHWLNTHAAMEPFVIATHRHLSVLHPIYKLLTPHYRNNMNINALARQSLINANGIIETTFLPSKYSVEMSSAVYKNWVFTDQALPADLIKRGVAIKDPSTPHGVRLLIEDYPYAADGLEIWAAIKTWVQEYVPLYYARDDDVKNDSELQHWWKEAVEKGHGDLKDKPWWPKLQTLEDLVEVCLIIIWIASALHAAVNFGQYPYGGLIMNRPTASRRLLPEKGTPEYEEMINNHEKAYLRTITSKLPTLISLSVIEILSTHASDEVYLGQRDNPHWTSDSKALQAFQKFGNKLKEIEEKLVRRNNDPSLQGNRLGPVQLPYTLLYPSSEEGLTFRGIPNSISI
The data set can be described thus: LOX inhibition study in vitro. Conditions: values in parentheses in Table 3. It is filed as biochemical. Here is the method: LOX inhibitory assay in vitro was accomplished as described previously. The test compounds (stock solutions 10 mM in DMSO) were incubated at room temperature with sodium linoleate (c = 0.1 mM) and 0.2 mL of LOX enzyme solution (1/9 × 10^−4 m/V in saline). The conversion of sodium linoleate to 13-hydroperoxylinoleic acid was measured at 234 nm and compared with the reference inhibitor. Several concentrations were used for the IC50 determination.

Another data set concerns HEL cells. Kind of data set: Cytotoxicity assay, alteration of HEL cell morphology (MCC). Format: cell-based, human. Conditions: 3 days. Here is the method: Cytotoxicity measurements were based on the inhibition of HEL cell growth. Cells were seeded at 5 × 10^3 cells/well into 96-well microtiter plates. Then, medium containing different concentrations of the test compounds was added. After 3 days of incubation at 37 °C, the alteration of morphology of the cell cultures was recorded light microscopically. Cytotoxicity was expressed as MCC.

Data set [4] relates to SW 620 colon carcinoma cell line. The data set can be described thus: Growth inhibition of tumor cell lines in vitro (MTT / cell counting). It is filed as cell-based. The settings on record: Homo sapiens, 72 h; SW 620, 3 days. In outline: as §1
Data set [5] relates to CEM acute lymphoblastic leukemia cell line. The description is as above. It is filed as cell-based. Conditions: Homo sapiens, 96 h, 4 days. In outline:
as §1

For data set [6], the system named is L1210 murine lymphocytic leukemia cell line. Described as above. Format: cell-based. The settings on record: Mus musculus, 96 h; L1210, 4 days. In outline: as §1
Data set [7] deals with HeLa cervical carcinoma cell line. Described as above. It is filed as cell-based. Conditions: Homo sapiens.
Data set [8] in a line: Interaction with the stable radical DPPH (reducing ability). Here is the method:
To a solution of DPPH in absolute ethanol the appropriate volume of the compounds (50 or 100 µM final concentrations) dissolved in DMSO was added. The absorbance was recorded at 517 nm after 20 and 60 min at room temperature. The experiments were repeated at least in triplicate and the standard deviation of absorbance was less than 10% of the mean. NDGA was used under the same experimental conditions as a reference compound.

Data set [9] in a line: Inhibition of linoleic acid peroxidation (AAPH-induced). The settings on record: 5 × 10^−5 M. In a few lines: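 Sodium linoleate (16 mM stock) in 0.05 M phosphate buffer pH 7.4 at 37 °C under air, peroxidation initiated by AAPH (40 mM stock) with test compound added. Conjugated diene formation followed at 234 nm; at least triplicate runs, Trolox as reference.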
For a further data set, the system named is lung adenocarcinoma A549. The data set can be described thus: Growth inhibition of tumor cell lines in vitro (reference drug). Conditions: Homo sapiens; lung adenocarcinoma A549 (footnote c, printed in NCI-H460 column). Format: cell-based.

As usually defined, the IC50 is the concentration that gives 50% inhibition.

Regarding `COc1cc(NC(C)CCCNC(=O)NNC(=O)/C=C/c2ccc(Cl)cc2)c2ncccc2c1` (stereo not shown) [7g, (E)-1-(3-(4-Chlorophenyl)acryloyl)-4-(4-(6-methoxyquinolin-8-ylamino)pentyl)semicarbazide], the 50% inhibitory concentration (IC50) in data set [1] came to 0.2 ± 0.2 µM; in [2], 20 ± 0.7 µM; in [3], 70 µM; in data set [4], 21 ± 4 µM; in data set [5], 0.9 ± 0.7 µM; in data set [6], 1.6 ± 0.7 µM. For the same compound, the half-maximal inhibitory concentration (IC50) in [7] came out at 2.7 ± 1.2 µM. The “MCC (minimum cytotoxic concentration)” value in the data set with HEL cells is given as “around 20 μΜ”. In addition, the “DPPH-reducing ability RA (%)” value in data set [8] (1 × 10^−4 M, 20 min) amounted to 100%; in data set [8] (1 × 10^−4 M, 60 min), 100%; in [8] (5 × 10^−5 M, 20 min), 66%; in data set [8] (5 × 10^−5 M, 60 min) it was 100%. Further, the “LP Inhibition (%)” value in data set [9] is listed as 89%.
Regarding `CNC(=O)c1cc(Oc2ccc(NC(=O)Nc3ccc(Cl)c(C(F)(F)F)c3)cc2)ccn1` [SOR, sorafenib, reference compound], the IC50 in data set [1] worked out at 3.9 ± 1.6 µM; in data set [4] it was 7.1 ± 1.9 µM; in [5], 3.2 ± 1.7 µM; in data set [6] it was 4.2 ± 2.4 µM; in data set [7], 7.1 ± 2.6 µM; in the data set on lung adenocarcinoma A549 it was 6.1 ± 0.6 µM.
